Measurements as given in patent US9695155B2, “Herbicidal substituted pyrimidinyloxy benzene compounds” (E. I. DU PONT DE NEMOURS AND COMPANY, priority 2013, dated 2017).

Legend:
wheat = experiment: Test A preemergence; format: in vivo, Triticum aestivum
Summary of the method: (§1)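 Visual injury scored 0–100 (100 = complete control) against untreated controls about 10 days after treatment in a greenhouse. Test chemicals, formulated with surfactant in non-phytotoxic solvent, were sprayed on soil preemergence or on 2-10 cm, one- to two-leaf plants postemergence.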

giant foxtail [1] = experiment: Test A postemergence; format: in vivo, Setaria faberii
Summary of the method: as §1

morningglory = experiment: Test A postemergence; format: in vivo, Ipomoea spp.; settings: for Morningglory plant response rating: 125 g ai/ha
Summary of the method: as §1

Heteranthera limosa = experiment: Test B flooded paddy test; format: in vivo; settings: Flood, 250 g ai/ha; 0 to 100 scale where 0 is no effect and 100 is complete control
Summary of the method: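 2-leaf stage plants; pots flooded to 3 cm, compound added to paddy water, depth maintained. Greenhouse 13–15 d. Visual rating vs untreated controls, 0 (no effect) to 100 (complete control); dash = no result.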

corn = experiment: Test C preemergence; format: in vivo, Zea mays; settings: for Corn plant response rating: preemergence; for Plant response rating, Corn: Preemergence, scale 0 to 100, 0 no effect, 100 complete control
Summary of the method: (§2)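 Visual injury score versus untreated controls, 0 = no effect, 100 = complete control, taken 13 to 15 days after treatment in the greenhouse. Pre-emergence pots held loam/sand; post-emergence plants grew in sphagnum peat/vermiculite mix and were sprayed at the 1- to 4-leaf stage.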

giant foxtail [2] = experiment: Test C preemergence; format: in vivo, Setaria faberii; settings: for Foxtail, Giant plant response rating: preemergence; for Plant response rating, Foxtail, Giant: Preemergence, scale 0 to 100, 0 no effect, 100 complete control
Summary of the method: as §2

oilseed rape = experiment: Test C preemergence; format: in vivo, Brassica napus; settings: for Oilseed Rape plant response rating: preemergence; for Plant response rating, Oilseed Rape: Preemergence, scale 0 to 100, 0 no effect, 100 complete control
From the text: (§3) Seeds of plant species selected from blackgrass (Alopecurus myosuroides), Italian ryegrass (Lolium multiflorum), wheat, winter (winter wheat, Triticum aestivum), galium (catchweed bedstraw, Galium aparine), corn (Zea mays), large (Lg) crabgrass (Digitaria sanguinalis), giant foxtail (Setaria faberii), johnsongrass (Sorghum halepense), lambsquarters (Chenopodium album), morningglory (Ipomoea coccinea), yellow nutsedge (Cyperus esculentus), pigweed (Amaranthus retroflexus), ragweed (common ragweed, Ambrosia elatior), soybean (Glycine max), barnyardgrass (Echinochloa crus-galli), oilseed rape (Brassica napus), waterhemp (common waterhemp, Amaranthus rudis), kochia (Kochia scoparia), wild oat (Avena fatua), surinam grass (Brachiaria decumbens), foxtail, green (green foxtail, Setaria viridis), goosegrass (Eleusine indica), bromegrass, downy (downy bromegrass, Bromus tectorum), nightshade (eastern black nightshade, Solanum ptycanthum), cocklebur (common cocklebur, Xanthium strumarium), cupgrass, woolly (woolly cupgrass, Eriochloa villosa), bermudagrass (Cynodon dactylon), sunflower, (common oilseed sunflower, Helianthus annuus), Russian thistle (Salsola kali), and velvetleaf (Abutilon theophrasti) were planted into a blend of loam soil and sand and treated preemergence with test chemicals formulated in a non-phytotoxic solvent mixture which included a surfactant.
(§4) At the same time, plants selected from these crop and weed species and also barley, winter (winter barley, Hordeum vulgare), windgrass (Apera spica-venti), chickweed (common chickweed, Stellaria media), deadnettle (henbit deadnettle, Lamium amplexicaule), and canarygrass (littleseed canarygrass, Phalaris minor) were planted in pots containing Redi-Earth® planting medium (Scotts Company, 14111 Scottslawn Road, Marysville, Ohio 43041) comprising spaghnum peat moss, vermiculite, wetting agent and starter nutrients and treated with postemergence applications of test chemicals formulated in the same manner. Plants ranged in height from 2 to 18 cm (1- to 4-leaf stage) for postemergence treatments. Treated plants and controls were maintained in a greenhouse for 13 to 15 days, after which time all species were compared to controls and visually evaluated. Plant response ratings, summarized in Table C, are based on a scale of 0 to 100 where 0 is no effect and 100 is complete control. A dash (-) response means no test result.

waterhemp = experiment: Test C preemergence; format: in vivo, Amaranthus rudis; settings: for Waterhemp plant response rating: preemergence; for Plant response rating, Waterhemp: Preemergence, scale 0 to 100, 0 no effect, 100 complete control
From the text: as §3, §4

galium = experiment: Test C postemergence; format: in vivo, Galium aparine; settings: for Plant response rating, Galium: scale 0 to 100 (0 no effect, 100 complete control)
Summary of the method: as §2

johnsongrass = experiment: Test C postemergence; format: in vivo, Sorghum halepense; settings: for Plant response rating, Johnsongrass: scale 0 to 100 (0 no effect, 100 complete control)
Summary of the method: as §2

ragweed = experiment: Test C postemergence; format: in vivo, Ambrosia elatior; settings: for Plant response rating, Ragweed: scale 0 to 100 (0 no effect, 100 complete control)
Summary of the method: as §2

[3] = 1000 g ai/ha, 0 to 100 scale, 0 no effect, 100 complete control
[4] = 16 g ai/ha, scale 0 to 100 (0 no effect, 100 complete control)
[5] = 62 g ai/ha, scale 0 (no effect) to 100 (complete control)
[6] = 125 g ai/ha, scale 0 (no effect) to 100 (complete control)
[7] = 16 g ai/ha, postemergence, 0 is no effect, 100 is complete control
[8] = 125 g ai/ha, postemergence, visual rating
[9] = 125 g ai/ha, 0 to 100 scale where 0 is no effect and 100 is complete control
[10] = 500 g ai/ha, 0 to 100 scale where 0 is no effect and 100 is complete control
[11] = 0 to 100 scale where 0 is no effect and 100 is complete control

Row | SMILES | Plant response rating, Ducksalad (Heteranthera limosa) | Corn plant response rating (corn; [4]) | Corn plant response rating (corn; [5]) | Corn plant response rating (corn; [6]) | Plant response rating, Corn (corn; 31 g ai/ha) | Foxtail, Giant plant response rating (giant foxtail [2]; [4]) | Foxtail, Giant plant response rating (giant foxtail [2]; [5]) | Foxtail, Giant plant response rating (giant foxtail [2]; [6]) | Plant response rating, Foxtail, Giant (giant foxtail [2]; 31 g ai/ha) | Oilseed Rape plant response rating (oilseed rape; [4]) | Oilseed Rape plant response rating (oilseed rape; [5]) | Oilseed Rape plant response rating (oilseed rape; [6]) | Plant response rating, Oilseed Rape (oilseed rape; 31 g ai/ha) | Waterhemp plant response rating (waterhemp; [4]) | Waterhemp plant response rating (waterhemp; [5]) | Waterhemp plant response rating (waterhemp; [6]) | Plant response rating, Waterhemp (waterhemp; 31 g ai/ha) | Plant response rating, Corn (corn; 62 g ai/ha) | Plant response rating, Foxtail, Giant (giant foxtail [1]; [10]) | Plant response rating, Morningglory (morningglory; [10]) | further results
1 | N#Cc1cn(-c2c(Br)cccc2Oc2ncc(Cl)cn2)nn1 [Compound 116] | 60 | 0 | 5 | 25 | 0 | 0 | 85 | 95 | 10 | 0 | 98 | 100 | 5 | 100 | 100 | 100 | 100 | – | – | – | Wheat plant response rating (wheat; 1000 g ai/ha, 0 to 100 scale, 0 no effect, 100 complete control, approx. 10 days): 40; Plant response rating, Foxtail, Giant (giant foxtail [1]; [3]): 90; Plant response rating, Morningglory (morningglory; [3]): 100; Plant response rating (0 to 100), Galium (galium; [7]): 55; Plant response rating, Galium (galium; [8]): 80; Plant response rating, Galium (galium; Postemergence, 62 g ai/ha): 80; Plant response rating (0 to 100), Johnsongrass (johnsongrass; [7]): 0; Plant response rating, Johnsongrass (johnsongrass; [8]): 15; Plant response rating, Johnsongrass (johnsongrass; Postemergence, 62 g ai/ha): 0; Plant response rating (0 to 100), Ragweed (ragweed; [7]): 5; Plant response rating, Ragweed (ragweed; [8]): 70; Plant response rating, Ragweed (ragweed; Postemergence, 62 g ai/ha): 25
2 | FCc1cccc(Oc2ncc(Cl)cn2)c1-n1cc(Cl)cn1 [Compound 250] | 70 | 0 | – | 10 | – | 5 | – | 100 | – | 100 | – | 100 | – | 85 | – | 100 | – | 0 | – | – | Plant response rating, Foxtail, Giant (giant foxtail [1]; 31 g ai/ha, 0 to 100 scale, 0 no effect, 100 complete control): 10; Plant response rating, Foxtail, Giant (giant foxtail [1]; 125 g ai/ha, 0 to 100 scale, 0 no effect, 100 complete control): 80; Plant response rating, Foxtail, Giant (giant foxtail [2]; 62 g ai/ha): 100; Plant response rating, Oilseed Rape (oilseed rape; 62 g ai/ha): 100; Plant response rating, Waterhemp (waterhemp; 62 g ai/ha): 100
3 | Fc1cnc(Oc2cccc(C(F)F)c2-n2cc(Br)cn2)nc1 [Compound 112] | 90 | 0 | 5 | 20 | 0 | 15 | 100 | 100 | 85 | 65 | 95 | 100 | 90 | 90 | 100 | 100 | 98 | – | 90 | 100 | Plant response rating, Wheat (wheat; [9]): 0; Plant response rating, Foxtail, Giant (giant foxtail [1]; [9]): 30
4 | Fc1cccc(Oc2ncc(Cl)cn2)c1-n1cc(I)cn1 [Compound 179] | 80 | 0 | 5 | 15 | 5 | 40 | 100 | 100 | 85 | 60 | 98 | 100 | – | 90 | 98 | 100 | – | – | 90 | 100 | Wheat plant response rating (0 to 100 scale) (wheat; 125 g ai/ha): 0; Wheat plant response rating (wheat; [10]): 30; Foxtail, Giant plant response rating (giant foxtail [1]; [9]): 80; Morningglory plant response rating (morningglory; [11]): 70
5 | CCOc1cnn(-c2ccccc2Oc2ncc(Cl)cn2)c1 [Compound 187] | 65 | 0 | – | 5 | – | 0 | – | 85 | – | 70 | – | 90 | – | 25 | – | 95 | – | 5 | 90 | 100 | Wheat plant response rating (0 to 100 scale) (wheat; 125 g ai/ha): 0; Wheat plant response rating (wheat; [10]): 40; Foxtail, Giant plant response rating (giant foxtail [1]; [9]): 60; Morningglory plant response rating (morningglory; [11]): 70; Plant response rating, Foxtail, Giant (giant foxtail [2]; 62 g ai/ha): 85; Plant response rating, Oilseed Rape (oilseed rape; 62 g ai/ha): 90; Plant response rating, Waterhemp (waterhemp; 62 g ai/ha): 85
